Experimental data from patent US7041851B2, “Fluorinated phenyl thiophenyl derivatives and their use for imaging serotonin transporters” (The Trustees of the University of Pennsylvania, priority 2002, dated 2006).
Where “and” joins values, the source holds several entries; their conditions need not be identical. Equal entries are not always repeated.

Tests used:
[1] = Organ distribution and brain regional uptake of [18F]ACF in rats
[2] = In vivo metabolism of [18F]ACF in rats; conditions: three rats, one hour after iv injection
Method: In vivo metabolism of [^18F]ACF ([^18F]25), in three rats was evaluated at one hour after iv injection.

CN(C)Cc1ccccc1Sc1cc([18F])c(Cl)cc1N [[^18F]ACF]
Organ distribution: Lung ([1]; 30 min after iv injection): 1.76 ± 0.20 % dose/organ
Organ distribution: Muscle ([1]; 30 min after iv injection): 10.70 ± 1.68 % dose/organ
Organ distribution: Skin ([1]; 30 min after iv injection): 6.51 ± 0.66 % dose/organ
Organ distribution: Spleen ([1]; 30 min after iv injection): 0.29 ± 0.09 % dose/organ
Ratio to Cerebellum: Cerebellum ([1]; 30 min after iv injection): 1.00 ± 0.00
Ratio to Cerebellum: Cortex ([1]; 30 min after iv injection): 1.69 ± 0.20
Ratio to Cerebellum: Hippocampus ([1]; 30 min after iv injection): 1.89 ± 0.24
Ratio to Cerebellum: Hypothalamus ([1]; 30 min after iv injection): 2.29 ± 0.06
Ratio to Cerebellum: Remainder ([1]; 30 min after iv injection): 1.80 ± 0.11
Ratio to Cerebellum: Striatum ([1]; 30 min after iv injection): 2.06 ± 0.19
Regional brain distribution: Cerebellum ([1]; 30 min after iv injection): 0.37 ± 0.07 % dose/g
Regional brain distribution: Cortex ([1]; 30 min after iv injection): 0.62 ± 0.07 % dose/g
Regional brain distribution: Hippocampus ([1]; 30 min after iv injection): 0.70 ± 0.06 % dose/g
Regional brain distribution: Hypothalamus ([1]; 30 min after iv injection): 0.85 ± 0.14 % dose/g
Regional brain distribution: Remainder ([1]; 30 min after iv injection): 0.67 ± 0.09 % dose/g
Regional brain distribution: Striatum ([1]; 30 min after iv injection): 0.76 ± 0.08 % dose/g
Organ distribution: Blood ([1]; 60 min after iv injection): 4.65 ± 0.46 % dose/organ
Organ distribution: Bone ([1]; 60 min after iv injection): 0.08 ± 0.02 % dose/organ
Organ distribution: Brain ([1]; 60 min after iv injection): 0.69 ± 0.09 % dose/organ
Organ distribution: Heart ([1]; 60 min after iv injection): 0.11 ± 0.01 % dose/organ
Organ distribution: Kidney ([1]; 60 min after iv injection): 1.38 ± 0.25 % dose/organ
Organ distribution: Liver ([1]; 60 min after iv injection): 10.30 ± 2.50 % dose/organ
Organ distribution: Lung ([1]; 60 min after iv injection): 0.73 ± 0.08 % dose/organ
Organ distribution: Muscle ([1]; 60 min after iv injection): 7.69 ± 0.29 % dose/organ
Organ distribution: Skin ([1]; 60 min after iv injection): 5.97 ± 1.64 % dose/organ
Organ distribution: Spleen ([1]; 60 min after iv injection): 0.13 ± 0.02 % dose/organ
Ratio to Cerebellum: Cerebellum ([1]; 60 min after iv injection): 1.00 ± 0.00
Ratio to Cerebellum: Cortex ([1]; 60 min after iv injection): 2.10 ± 0.47
Ratio to Cerebellum: Hippocampus ([1]; 60 min after iv injection): 2.91 ± 0.64
Ratio to Cerebellum: Hypothalamus ([1]; 60 min after iv injection): 3.53 and 3.53 ± 0.33
Ratio to Cerebellum: Remainder ([1]; 60 min after iv injection): 2.56 ± 0.44
Ratio to Cerebellum: Striatum ([1]; 60 min after iv injection): 2.88 ± 0.52
Regional brain distribution: Cerebellum ([1]; 60 min after iv injection): 0.15 ± 0.03 % dose/g
Regional brain distribution: Cortex ([1]; 60 min after iv injection): 0.33 ± 0.13 % dose/g
Regional brain distribution: Hippocampus ([1]; 60 min after iv injection): 0.45 ± 0.13 % dose/g
Regional brain distribution: Hypothalamus ([1]; 60 min after iv injection): 0.54 ± 0.13 % dose/g
Regional brain distribution: Remainder ([1]; 60 min after iv injection): 0.39 ± 0.03 % dose/g
Regional brain distribution: Striatum ([1]; 60 min after iv injection): 0.45 ± 0.14 % dose/g
Organ distribution: Blood ([1]; 120 min after iv injection): 3.20 ± 0.57 % dose/organ
Organ distribution: Bone ([1]; 120 min after iv injection): 0.28 ± 0.06 % dose/organ
Organ distribution: Brain ([1]; 120 min after iv injection): 0.21 ± 0.03 % dose/organ
Organ distribution: Heart ([1]; 120 min after iv injection): 0.06 ± 0.01 % dose/organ
Organ distribution: Kidney ([1]; 120 min after iv injection): 0.78 ± 0.15 % dose/organ
Organ distribution: Liver ([1]; 120 min after iv injection): 5.90 ± 1.03 % dose/organ
Organ distribution: Lung ([1]; 120 min after iv injection): 0.32 ± 0.06 % dose/organ
Organ distribution: Muscle ([1]; 120 min after iv injection): 4.02 ± 1.22 % dose/organ
Organ distribution: Skin ([1]; 120 min after iv injection): 2.61 ± 0.17 % dose/organ
Organ distribution: Spleen ([1]; 120 min after iv injection): 0.06 ± 0.02 % dose/organ
Ratio to Cerebellum: Cerebellum ([1]; 120 min after iv injection): 1.00 ± 0.00
Ratio to Cerebellum: Cortex ([1]; 120 min after iv injection): 1.77 ± 0.04
Ratio to Cerebellum: Hippocampus ([1]; 120 min after iv injection): 2.67 ± 0.15
Ratio to Cerebellum: Hypothalamus ([1]; 120 min after iv injection): 3.23 ± 0.21
Ratio to Cerebellum: Remainder ([1]; 120 min after iv injection): 2.34 ± 0.09
Ratio to Cerebellum: Striatum ([1]; 120 min after iv injection): 2.97 ± 0.16
Regional brain distribution: Cerebellum ([1]; 120 min after iv injection): 0.05 ± 0.01 % dose/g
Regional brain distribution: Cortex ([1]; 120 min after iv injection): 0.09 ± 0.01 % dose/g
Regional brain distribution: Hippocampus ([1]; 120 min after iv injection): 0.14 ± 0.02 % dose/g
Regional brain distribution: Hypothalamus ([1]; 120 min after iv injection): 0.17 ± 0.01 % dose/g
Regional brain distribution: Remainder ([1]; 120 min after iv injection): 0.12 ± 0.01 % dose/g
Regional brain distribution: Striatum ([1]; 120 min after iv injection): 0.15 ± 0.02 % dose/g
Organ distribution: Blood ([1]; 240 min after iv injection): 2.33 ± 0.34 % dose/organ
Organ distribution: Bone ([1]; 240 min after iv injection): 0.27 ± 0.07 % dose/organ
Organ distribution: Brain ([1]; 240 min after iv injection): 0.06 ± 0.01 % dose/organ
Organ distribution: Heart ([1]; 240 min after iv injection): 0.04 ± 0.01 % dose/organ
Organ distribution: Kidney ([1]; 240 min after iv injection): 0.51 ± 0.07 % dose/organ
Organ distribution: Liver ([1]; 240 min after iv injection): 3.55 ± 0.35 % dose/organ
Organ distribution: Lung ([1]; 240 min after iv injection): 0.15 ± 0.02 % dose/organ
Organ distribution: Muscle ([1]; 240 min after iv injection): 2.08 ± 0.05 % dose/organ
Organ distribution: Skin ([1]; 240 min after iv injection): 1.53 ± 0.17 % dose/organ
Organ distribution: Spleen ([1]; 240 min after iv injection): 0.03 ± 0.00 % dose/organ
Ratio to Cerebellum: Cerebellum ([1]; 240 min after iv injection): 1.00 ± 0.00
Ratio to Cerebellum: Cortex ([1]; 240 min after iv injection): 1.52 ± 0.21
Ratio to Cerebellum: Hippocampus ([1]; 240 min after iv injection): 1.99 ± 0.23
Ratio to Cerebellum: Hypothalamus ([1]; 240 min after iv injection): 2.37 and 2.37 ± 0.23
Ratio to Cerebellum: Remainder ([1]; 240 min after iv injection): 1.58 ± 0.13
Ratio to Cerebellum: Striatum ([1]; 240 min after iv injection): 2.35 ± 0.05
Regional brain distribution: Cerebellum ([1]; 240 min after iv injection): 0.02 ± 0.00 % dose/g
Regional brain distribution: Cortex ([1]; 240 min after iv injection): 0.03 ± 0.01 % dose/g
Regional brain distribution: Hippocampus ([1]; 240 min after iv injection): 0.04 ± 0.01 % dose/g
Regional brain distribution: Hypothalamus ([1]; 240 min after iv injection): 0.05 ± 0.00 % dose/g
Regional brain distribution: Remainder ([1]; 240 min after iv injection): 0.03 ± 0.00 % dose/g
Regional brain distribution: Striatum ([1]; 240 min after iv injection): 0.05 ± 0.00 % dose/g
Time of peak specific uptake in the hypothalamus region ([1]; after injection): 60 to 120 min
Initial brain uptake ([1]; iv): 1.71±0.45 % dose/g
Activity extracted from the brain that was original compound (HPLC) [2]: 95.5±0.40%
Percentage of organic-extractable material, kidney [2]: 20.25±0.60%
Percentage of organic-extractable material, liver [2]: 20.03±6.60%
Percentage of organic-extractable material, plasma [2]: 6.76±1.00%
